Reference: ChEMBL document CHEMBL1201862, “PubChem BioAssay data set” (2004)
The source made the active and inactive calls.

What was measured:
[1] = target: Protein-arginine deiminase type-4 (Homo sapiens, UniProt Q9UM07); test: IC50 against protein arginine deiminase 4 – biochemical, fluorescence readout, dose response (AID 492970)
Bcl-2-related protein A1 = target: T1, Bcl-2-related protein A1 (Mus musculus, UniProt Q07440); type: functional;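 note: confirmatory dose–response counterscreen on Bfl-1, used to check hits from a UBC13 polyubiquitin inhibitor campaign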
T1 sequence (Q07440 whole entry): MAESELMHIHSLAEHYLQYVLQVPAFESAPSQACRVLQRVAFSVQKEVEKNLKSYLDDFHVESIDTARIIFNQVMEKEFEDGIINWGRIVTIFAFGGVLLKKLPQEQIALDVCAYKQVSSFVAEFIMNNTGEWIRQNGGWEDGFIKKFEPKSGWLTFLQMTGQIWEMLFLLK

[2] = target: T2, Ubiquitin-conjugating enzyme E2 N (Homo sapiens, UniProt P61088); type: functional
T2 sequence (P61088 whole entry): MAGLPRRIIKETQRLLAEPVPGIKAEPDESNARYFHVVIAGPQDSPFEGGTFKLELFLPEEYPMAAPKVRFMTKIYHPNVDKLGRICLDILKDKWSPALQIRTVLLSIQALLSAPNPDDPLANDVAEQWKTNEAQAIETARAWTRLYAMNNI

[3] = target: T2, Ubiquitin-conjugating enzyme E2 N; type: functional; remark: listed apart in the source
Beta-lactamase [4] = target: Beta-lactamase (Pseudomonas aeruginosa, UniProt Q79MP6);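 note: biochemical dose-response test of metallo-beta-lactamase enzyme inhibition, read out by epi-absorbance; purified recombinant IMP-1 metallo-beta-lactamase with nitrocefin as substrate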
Beta-lactamase [5] = target: Beta-lactamase (Salmonella choleraesuis (strain SC-B67), UniProt Q5J463)
ORF 73 = ORF 73 (Human herpesvirus 8, UniProt O40947); test: KSHV LANA DNA-binding disruption – biochemical, fluorescence polarization, cherry-picked samples, dose response (AID 504725); design: species or system Human gammaherpesvirus 8;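 note: fluorescence polarization of a labeled DNA duplex reporting LANA DNA binding; potency is for inhibitors that block LANA binding to the DNA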
[6] = compound autofluorescence in calcium buffer – biochemical, fluorescence, no RTF in test wells, artefact control for cardiac thin filament activator project, dose response (AID 504697)
Troponin, cardiac muscle = Troponin, cardiac muscle (Homo sapiens, UniProt P19429+P45379+P63316); test: Fluorescence-based biochemical high throughput dose response assay for activators of the calcium sensitivity of cardiac Regulated Thin Filaments (RTF). [Related pubchem assays (depositor defined):AID493008, AID493018, AID504382, AID504383]; type: protein-complex assay
Insulin-degrading enzyme [7] = target: T3, Insulin-degrading enzyme (Homo sapiens, UniProt P14735); test: recombinant IDE activation, cell-free – biochemical, fluorescence polarization, counter-screen for IDE activator project, dose response (AID 588681)
T3 sequence (P14735 whole entry): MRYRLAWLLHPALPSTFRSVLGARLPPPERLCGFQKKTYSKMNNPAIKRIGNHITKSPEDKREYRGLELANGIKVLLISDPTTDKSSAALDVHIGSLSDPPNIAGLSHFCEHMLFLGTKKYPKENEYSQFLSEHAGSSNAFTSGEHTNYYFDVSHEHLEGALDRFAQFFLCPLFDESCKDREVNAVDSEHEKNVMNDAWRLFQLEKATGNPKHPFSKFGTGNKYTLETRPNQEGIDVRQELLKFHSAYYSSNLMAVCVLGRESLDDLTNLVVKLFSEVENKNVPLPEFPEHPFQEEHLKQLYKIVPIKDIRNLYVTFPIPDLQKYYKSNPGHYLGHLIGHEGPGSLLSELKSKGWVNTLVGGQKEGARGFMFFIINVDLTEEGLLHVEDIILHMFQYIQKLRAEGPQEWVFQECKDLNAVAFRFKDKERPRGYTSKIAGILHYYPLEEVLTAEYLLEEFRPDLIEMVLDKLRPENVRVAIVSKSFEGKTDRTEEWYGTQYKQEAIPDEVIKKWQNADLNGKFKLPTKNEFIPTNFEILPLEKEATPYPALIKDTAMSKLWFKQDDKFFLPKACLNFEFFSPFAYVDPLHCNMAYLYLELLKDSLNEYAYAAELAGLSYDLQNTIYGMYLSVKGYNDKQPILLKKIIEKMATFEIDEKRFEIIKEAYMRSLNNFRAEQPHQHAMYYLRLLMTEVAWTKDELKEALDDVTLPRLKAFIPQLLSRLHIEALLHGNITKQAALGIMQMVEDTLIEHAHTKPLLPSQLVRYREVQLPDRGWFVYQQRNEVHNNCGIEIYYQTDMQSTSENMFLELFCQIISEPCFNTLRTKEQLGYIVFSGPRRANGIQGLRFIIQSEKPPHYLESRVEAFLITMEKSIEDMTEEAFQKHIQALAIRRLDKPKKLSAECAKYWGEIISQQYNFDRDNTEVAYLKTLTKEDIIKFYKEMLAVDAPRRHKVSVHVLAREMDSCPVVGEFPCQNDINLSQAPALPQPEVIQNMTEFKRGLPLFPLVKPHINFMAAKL

Insulin-degrading enzyme [8] = target: T3, Insulin-degrading enzyme; test: cellular IDE activation of Abeta substrate cleavage – fluorescence polarization, HEK cells, dose response (AID 588439); type: functional, cell-based
HEK293 [9] = test: membrane integrity loss in HEK cells – cell-based, fluorescence, cytotoxicity control for IDE activator project, dose response (AID 588440); type: functional; settings: Homo sapiens;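 note: cytotoxicity by LDH release measuring loss of membrane integrity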
HEK293 [10] = test: optical interference in Abeta FP readout, dose response, artefact control for IDE activator project, biochemical, fluorescence polarization (AID 588442); type: functional, cell-based; settings: Homo sapiens
[11] = target: T4, Tyrosine-protein phosphatase non-receptor type 7 (Homo sapiens, UniProt P35236); type: functional
T4 sequence (P35236 whole entry): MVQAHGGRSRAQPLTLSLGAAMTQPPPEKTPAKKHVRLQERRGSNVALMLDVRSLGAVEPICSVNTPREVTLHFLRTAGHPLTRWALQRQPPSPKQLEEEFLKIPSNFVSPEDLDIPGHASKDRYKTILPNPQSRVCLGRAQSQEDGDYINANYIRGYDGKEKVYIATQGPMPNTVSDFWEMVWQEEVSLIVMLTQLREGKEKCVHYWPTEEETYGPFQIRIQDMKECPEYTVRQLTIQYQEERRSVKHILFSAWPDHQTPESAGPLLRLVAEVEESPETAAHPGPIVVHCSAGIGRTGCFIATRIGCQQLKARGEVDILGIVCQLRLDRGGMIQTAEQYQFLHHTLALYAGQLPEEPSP

[12] = target: T5, Tyrosine-protein phosphatase non-receptor type 22 (Homo sapiens, UniProt Q9Y2R2); type: functional
T5 sequence (Q9Y2R2 whole entry): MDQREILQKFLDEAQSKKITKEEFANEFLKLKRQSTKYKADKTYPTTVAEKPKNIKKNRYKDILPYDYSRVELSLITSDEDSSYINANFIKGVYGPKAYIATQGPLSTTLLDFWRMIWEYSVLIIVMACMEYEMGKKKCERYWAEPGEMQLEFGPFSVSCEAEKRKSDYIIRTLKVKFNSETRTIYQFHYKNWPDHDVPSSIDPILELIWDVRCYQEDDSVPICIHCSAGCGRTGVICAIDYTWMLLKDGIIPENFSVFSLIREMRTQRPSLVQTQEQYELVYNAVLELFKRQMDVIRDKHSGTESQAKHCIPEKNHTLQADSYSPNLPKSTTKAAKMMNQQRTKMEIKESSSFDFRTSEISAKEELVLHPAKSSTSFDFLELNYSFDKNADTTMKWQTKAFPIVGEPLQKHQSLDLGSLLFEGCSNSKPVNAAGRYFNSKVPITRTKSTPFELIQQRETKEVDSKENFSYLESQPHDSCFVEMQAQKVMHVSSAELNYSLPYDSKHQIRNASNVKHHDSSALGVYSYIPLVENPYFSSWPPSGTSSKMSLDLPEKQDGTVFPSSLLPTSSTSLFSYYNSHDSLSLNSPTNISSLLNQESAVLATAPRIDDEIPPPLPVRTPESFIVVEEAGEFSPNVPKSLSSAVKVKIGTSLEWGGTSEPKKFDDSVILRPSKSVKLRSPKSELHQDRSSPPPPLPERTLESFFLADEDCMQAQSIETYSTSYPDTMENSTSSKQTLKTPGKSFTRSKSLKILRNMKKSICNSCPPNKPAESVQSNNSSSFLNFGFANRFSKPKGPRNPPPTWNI

[13] = target: T5, Tyrosine-protein phosphatase non-receptor type 22; type: functional; remark: listed apart in the source
[14] = target: T6, Corticotropin-releasing factor receptor 2/Corticotropin-releasing factor-binding protein (Homo sapiens, UniProt P24387+Q13324); test: activators of CRF receptor 2 with binding protein – uHTS hits, confirmation (AID 602473); type: functional; settings: read-out: EC50_Mean
T6 sequence (Q13324 whole entry): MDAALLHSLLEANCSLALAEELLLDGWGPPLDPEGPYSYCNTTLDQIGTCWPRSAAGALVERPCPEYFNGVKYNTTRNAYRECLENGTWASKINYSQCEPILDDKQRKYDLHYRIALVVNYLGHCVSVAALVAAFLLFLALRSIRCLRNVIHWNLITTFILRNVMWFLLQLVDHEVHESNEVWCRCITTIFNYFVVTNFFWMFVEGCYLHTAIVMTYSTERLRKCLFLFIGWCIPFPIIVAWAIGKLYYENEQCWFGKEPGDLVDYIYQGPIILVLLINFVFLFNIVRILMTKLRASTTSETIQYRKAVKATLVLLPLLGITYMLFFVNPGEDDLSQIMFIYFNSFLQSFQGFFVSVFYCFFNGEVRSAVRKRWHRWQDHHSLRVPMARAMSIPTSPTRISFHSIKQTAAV
T6 sequence (P24387 whole entry): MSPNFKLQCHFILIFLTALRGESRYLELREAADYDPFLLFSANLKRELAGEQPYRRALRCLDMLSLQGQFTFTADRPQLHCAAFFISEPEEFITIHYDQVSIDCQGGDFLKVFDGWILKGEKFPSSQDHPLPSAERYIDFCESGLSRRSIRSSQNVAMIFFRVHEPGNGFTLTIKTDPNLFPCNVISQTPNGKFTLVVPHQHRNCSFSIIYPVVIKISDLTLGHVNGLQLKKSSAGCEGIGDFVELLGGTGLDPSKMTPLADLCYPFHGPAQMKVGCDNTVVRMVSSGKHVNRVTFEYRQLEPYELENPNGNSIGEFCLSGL

Sequence of Beta-lactamase (Pseudomonas aeruginosa, UniProt Q79MP6) (Q79MP6 whole entry): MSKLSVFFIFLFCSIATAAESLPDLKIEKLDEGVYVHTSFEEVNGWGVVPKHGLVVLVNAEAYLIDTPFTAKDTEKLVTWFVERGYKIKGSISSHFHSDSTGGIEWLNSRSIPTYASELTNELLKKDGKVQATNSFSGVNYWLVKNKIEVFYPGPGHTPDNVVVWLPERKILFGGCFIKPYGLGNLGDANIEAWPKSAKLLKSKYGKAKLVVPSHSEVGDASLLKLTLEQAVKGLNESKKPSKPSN
Sequence of Beta-lactamase (Salmonella choleraesuis (strain SC-B67), UniProt Q5J463) (Q5J463 whole entry): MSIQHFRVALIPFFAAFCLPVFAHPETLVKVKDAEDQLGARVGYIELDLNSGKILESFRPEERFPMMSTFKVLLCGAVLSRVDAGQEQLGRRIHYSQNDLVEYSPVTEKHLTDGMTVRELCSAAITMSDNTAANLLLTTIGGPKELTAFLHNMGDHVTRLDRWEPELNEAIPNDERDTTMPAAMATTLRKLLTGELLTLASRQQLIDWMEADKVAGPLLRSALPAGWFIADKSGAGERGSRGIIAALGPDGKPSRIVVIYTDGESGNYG
Sequence of ORF 73 (O40947 whole entry): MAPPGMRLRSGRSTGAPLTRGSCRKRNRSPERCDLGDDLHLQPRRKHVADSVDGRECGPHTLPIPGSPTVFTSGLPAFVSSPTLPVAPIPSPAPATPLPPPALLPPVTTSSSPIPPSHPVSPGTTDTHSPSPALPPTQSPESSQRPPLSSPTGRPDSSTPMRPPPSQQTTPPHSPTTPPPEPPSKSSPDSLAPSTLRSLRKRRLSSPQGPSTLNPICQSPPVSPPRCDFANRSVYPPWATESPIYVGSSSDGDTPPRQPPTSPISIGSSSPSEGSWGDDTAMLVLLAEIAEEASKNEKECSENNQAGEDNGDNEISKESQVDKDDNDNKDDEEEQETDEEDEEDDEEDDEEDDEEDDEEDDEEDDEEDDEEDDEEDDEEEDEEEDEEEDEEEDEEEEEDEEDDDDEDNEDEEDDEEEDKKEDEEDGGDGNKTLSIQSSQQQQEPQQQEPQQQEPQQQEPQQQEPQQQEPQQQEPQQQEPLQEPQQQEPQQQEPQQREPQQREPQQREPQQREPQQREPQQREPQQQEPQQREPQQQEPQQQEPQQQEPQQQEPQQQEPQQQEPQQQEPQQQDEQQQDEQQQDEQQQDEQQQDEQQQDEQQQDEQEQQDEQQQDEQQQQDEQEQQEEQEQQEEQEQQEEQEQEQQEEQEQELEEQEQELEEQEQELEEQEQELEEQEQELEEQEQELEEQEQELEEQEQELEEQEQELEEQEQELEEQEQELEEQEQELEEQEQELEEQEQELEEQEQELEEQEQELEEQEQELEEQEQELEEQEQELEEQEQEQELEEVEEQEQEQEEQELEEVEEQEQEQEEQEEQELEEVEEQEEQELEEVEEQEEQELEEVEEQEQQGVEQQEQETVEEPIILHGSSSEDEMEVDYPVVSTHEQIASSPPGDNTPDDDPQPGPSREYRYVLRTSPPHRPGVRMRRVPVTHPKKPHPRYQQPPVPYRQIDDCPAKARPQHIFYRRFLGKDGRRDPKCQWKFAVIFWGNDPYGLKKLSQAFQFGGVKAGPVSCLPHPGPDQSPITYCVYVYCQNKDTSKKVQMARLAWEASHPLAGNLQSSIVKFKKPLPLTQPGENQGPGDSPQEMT
Sequence of Protein-arginine deiminase type-4 (Q9UM07 whole entry): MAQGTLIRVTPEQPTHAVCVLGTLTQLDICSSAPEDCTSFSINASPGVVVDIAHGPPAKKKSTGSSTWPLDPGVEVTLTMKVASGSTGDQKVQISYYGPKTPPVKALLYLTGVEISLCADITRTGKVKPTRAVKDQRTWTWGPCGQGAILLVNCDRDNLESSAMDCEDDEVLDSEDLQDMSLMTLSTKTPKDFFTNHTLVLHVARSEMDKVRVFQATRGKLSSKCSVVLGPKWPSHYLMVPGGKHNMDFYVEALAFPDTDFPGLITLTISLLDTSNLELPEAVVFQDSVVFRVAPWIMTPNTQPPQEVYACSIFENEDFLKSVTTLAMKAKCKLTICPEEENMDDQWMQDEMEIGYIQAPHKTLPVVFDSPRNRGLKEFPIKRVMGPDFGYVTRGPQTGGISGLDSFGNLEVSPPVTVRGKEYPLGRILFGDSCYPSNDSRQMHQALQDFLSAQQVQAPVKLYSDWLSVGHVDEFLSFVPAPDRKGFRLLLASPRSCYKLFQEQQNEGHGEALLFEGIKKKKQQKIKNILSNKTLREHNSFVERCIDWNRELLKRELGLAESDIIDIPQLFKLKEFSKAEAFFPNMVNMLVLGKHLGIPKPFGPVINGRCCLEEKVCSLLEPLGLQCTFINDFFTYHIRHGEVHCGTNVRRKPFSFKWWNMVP

NNC(=O)/C(=C\c1ccco1)NC(=O)c1ccccc1
IC50 [1]: > 100 µM (inactive)

Cc1ccc(NC(=O)C2CCN(c3ncnc4c3nc3n4CCCCC3)CC2)cc1Cl
IC50 (Bcl-2-related protein A1): > 20 µM (inactive) | IC50 [2]: 16 µM (active) | IC50 [3]: 6.92 µM (active)

CN(C)/C=C1\C=C2C(=O)c3ccccc3N2C1=O
IC50 (Beta-lactamase [4]): 1.02 µM (active) | IC50 (Beta-lactamase [5]): 0.372 µM (active) | AC50 (ORF 73): 0.051 µM (active) | EC50 [6]: > 0.0327 µM (active) | EC50 (Troponin, cardiac muscle): > 0.0109 µM (active) | EC50 (Insulin-degrading enzyme [7]): > 54.7 µM (inactive) | EC50 (Insulin-degrading enzyme [8]): > 54.7 µM (inactive) | IC50 (HEK293 [9]): > 89.2 µM (inactive) | EC50 (HEK293 [10]): > 54.7 µM (inactive)

c1ccc2c(CN3CCCCC3)csc2c1
IC50 [11]: > 79.4 µM (inactive) | IC50 [12]: > 79.4 µM (inactive) | IC50 [13]: > 79.4 µM (inactive) | EC50 [14]: 14.6 µM (active)
